Results on 1 molecule are retold here after patent US8946201B2, “Methods for inhibiting TGF-β” (Saint Louis University, priority 2007, dated 2015).

The structures appear in SMILES notation.

For experiment [1], the system named is TβR-I and TβR-II. Kind of experiment: 125I-TGF-β1 affinity labeling, CHO-K1 cells. The note with it: 1 μM, 37° C. 16 hr, 0.12 untreated. The experiment is classed as cell-based, Chinese hamster. How it is done:
(§1) (A, B, C, D, E, F) Cells were treated with LDL (50 μg protein/ml), VLDL (5 μg protein/ml), HDL (50 μg protein/ml), lipoprotein (a) (10 μg/ml), fluvastatin (F; 1 μM), lovastatin (L; 1 μM), nystatin (Nys; 25 μg/ml), β-CD (β-CD; 8 mM), cholest-4-en-3-one (3-one; 50 μg/ml) or cholesterol (Chol; 50 μg/ml) alone or combination of two. After 1 hr at 37° C. or 16 hr at 37° C. (for fluvastatin and lovastatin), ^125I-TGF-β1 affinity labeling of cell-surface TGF-β receptors was performed at 0° C. ^125I-TGF-β1 affinity-labeled TβR-I and TβR-II were analyzed by 7.5% SDS-PAGE and autoradiography. The relative intensities of TβR-I and TβR-II were quantified with a PhosphoImager. The ratio of ^125I-TGF-β1 binding to TβR-II and TβR-I were estimated. The numbers above the lane sequence denote the ratio of TβR-II/TβR-I.
After cross-linking, cell lysates were analyzed by 7.5% SDS-PAGE and autoradiography or quantified by a PhosphoImager. For all experiments, cholesterol or cholesterol derivatives were prepared as the stock solution with a concentration of 25 mg/ml in ethanol. The final concentration of ethanol in the medium was 0.2% (by vol.). […]

The next experiment has as its system PAI-1 expression. Kind of experiment: TGF-β1-induced PAI-1 expression, Northern blot, Mv1Lu cells. In kind it is cell-based, mink. The note with it: Mv1Lu cells. How it is done: (A, B, C, D, E, F) Cells were treated with 50 μg/ml cholesterol (A, B, C, D) and 50 μg/ml LDL (D) at 37° C. for 1 hr or with 1 μM fluvastatin or lovastatin (E) or several concentrations of fluvastatin (F) at 37° C. for 16 hr and then further incubated with increasing concentrations (as indicated) of TGF-β1 (A, B, C, E) or 50 pM TGF-β1 (D,F) for 2 hr. Northern blot analysis of PAI-1 and G3PDH was performed. A representative of a total of three analyses is shown (a). The relative intensities of the transcripts were quantified with a PhosphoImager. The ratio of the relative intensities of PAI-1 and G3PDH transcripts in cells treated without TGF-β1 and cholesterol, LDL or statins on the blot was taken as 1 fold or 100% of PAI-1 expression. The quantitative data from three independent analyses is shown (b). […] (G) Mv1Lu cells stably expressing a luciferase reporter gene driven by the PAI-1 promoter (MLECs-clone 32) were treated with increasing concentrations (as indicated) of cholesterol at 37 EC for 1 hr (a) or with 1 μM lovastatin at 37° C. for 16 hr (b) and then further incubated with 50 pM TGF-β for 7 hr. The luciferase activity in cells treated without cholesterol was taken as 100% (a). […] (H) Cells were incubated with 0.0625 and 0.125 pM TGF-β1 in the presence of increasing concentrations of cholesterol, as indicated. […] The experiments were carried out in triplicate.

For experiment [2], the system named is TβR-I and TβR-II. Kind of experiment: Western blot of TβR-I and TβR-II protein levels, Mv1Lu cells. In kind it is cell-based, mink. The note with it: 37° C. for 16 hr; versus cholesterol-treated and control cells.
Experimental: Cells grown to near confluence on 12-well cluster dishes were treated with cholesterol or LDL in serum-free DMEM (vol.=0.5 ml/well) at 37° C. for 1 hr. The treated cells were further incubated with 50 or 100 pM TGF-β1 at 37° C. for 30 min (for determining Smad2 phosphorylation) or for 2 hr (for determining TβR-II). Treated cells were lysed and cell lysates were analyzed by 7.5% SDS-PAGE and Western blot analysis using anti-Smad2, anti-P-Smad2, anti-caveolin-1, anti-TβR-I (alk5) or anti-TβR-II antibodies as described previously (30). The antigens on the blots were visualized by using horseradish peroxidase-conjugated anti-rabbit IgG antibody and the ECL system as described (30).
To determine if cholesterol suppresses TGF-β responsiveness by decreasing the ratio of TGF-β1 binding to TβR-II and TβR-I, we first determined the time course of the effect of cholesterol treatment on the ratio of ^125I-TGF-β1 binding to TβR-II and TβR-I in Mv1Lu cells. These cells were treated with 50 μg/ml cholesterol at 37° C. for several time periods. ^125I-TGF-β1 binding to TGF-β receptors was then determined by affinity labeling using the bifunctional cross-linking agent DSS (disuccinimidyl suberate) followed by 7.5% SDS-PAGE and autoradiography or quantified with a PhosphoImager. […] We then performed analysis of the effect of cholesterol treatment on TGF-β1 binding to TβR-I and TβR-II in several cell types. Mv1Lu, BAEC, and NRK cells were treated for 1 hr with increasing concentrations of cholesterol in the presence and absence of 0.2% β-cyclodextrin (β-CD, which forms water-soluble complexes with cholesterol) at 37° C. The binding of TGF-β1 to TβR-I and TβR-II in these cells was then determined by ^125I-TGF-β1 affinity labeling at 0° C.
The test system of experiment [3] is TβR-I and TβR-II. Kind of experiment: 125I-TGF-β1 affinity labeling, BAEC. In kind it is cell-based, bovine. The note with it: 1 μM, 37° C. 16 hr; BAEC cells; 2.47 untreated. As for the experimental part: (§2) (B, C, D, E) Cells were treated with increasing concentrations of cholesterol in the presence (C) and absence (B, D, E) of 0.2% β-CD, as indicated. After 1 hr at 37° C., ^125I-TGF-β1 affinity labeling of TβR-I and TβR-II in cells was performed at 0° C. ^125I-TGF-β1 affinity-labeled TβR-I and TβR-II were analyzed by 7.5% SDS-PAGE and autoradiography or quantified with a PhosphoImager. A representative of a total of three analyses is shown (top). The bracket indicates the locations of ^125I-TGF-β affinity-labeled TβR-I and TβR-II. The relative intensities of ^125I-TGF-β1 affinity-labeled TβR-I and TβR-II in cells treated without cholesterol were taken as 100%. The quantitative data from three analyses is shown (bottom).
as §1
(§3) After cross-linking, cell lysates were analyzed by 7.5% SDS-PAGE and autoradiography or quantified by a PhosphoImager. For all experiments, cholesterol or cholesterol derivatives were prepared as the stock solution with a concentration of 25 mg/ml in ethanol. The final concentration of ethanol in the medium was 0.2% (by vol.).

Experiment [4] concerns TβR-I and TβR-II. Kind of experiment: 125I-TGF-β1 affinity labeling, Mv1Lu cells. In kind it is cell-based, mink. The conditions noted are these: 1 μM, 37° C. 16 hr; Mv1Lu cells; 0.88 untreated. How it is done: (A) Mv1Lu cells were treated with 50 μg/ml cholesterol at 37° C. After several time periods, as indicated, ^125I-TGF-β1-affinity labeling was performed at 0° C. ^125I-TGF-β1 affinity-labeled TGF-β receptors were analyzed by 7.5% SDS-PAGE and autoradiography (a) and quantified with a PhosphoImager. The bracket indicates the locations of ^125I-TGF-β1 affinity-labeled TβR-I and TβR-II. The ratio of ^125I-TGF-β1 binding to TβR-II and TβR-I is plotted against incubation time (b).
as §2
The bracket indicates the locations of ^125I-TGF-β1 affinity-labeled TβR-I and TβR-II. The relative intensities of ^125I-TGF-β1-TβR-I and ^125I-TGF-β1-TβR-II complexes, which were quantified with a PhosphoImager, are plotted against TGF-β1 concentrations (bottom).
as §1
(G) Mv1Lu cells were treated with 50 μg/ml of cholesterol and cholesterol analogs/derivatives including 25-hydroxycholesterol, 7-dehydrocholesterol (7-DHC), 7-ketocholesterol, 7β, 8β-epoxycholesterol, 7β-hydroxycholesterol, and oxidized 7-dehydrocholesterol (oxy-7DHC). After 1 hr at 37° C., ^125I-TGF-β1 affinity labeling of TGF-β receptors was performed. ^125I-TGF-β1 affinity-labeled TβR-I and TβR-II were analyzed by 7.5% SDS-PAGE and autoradiography. The bracket indicates the locations of ^125I-TGF-β1-affinity-labeled TβR-I and TβR-II. The relative intensities of ^125I-TGF-β1 affinity-labeled TβR-I and TβR-II were determined by a PhosphoImager. The ratios of ^125I-TGF-β1 binding to TβR-II and TβR-I were estimated. The numbers above the lane sequence denote the ratio of TβR-II/TβR-I.
as §3

As usually defined, the EC50 is the concentration that produces a half-maximal response. On to `CC(C)n1c(/C=C/C(O)CC(O)CC(=O)O)c(-c2ccc(F)cc2)c2ccccc21` (stereo not drawn) [fluvastatin, reference compound], for which the “ratio of TβR-II/TβR-I” value worked out at 0.19 in the experiment with TβR-I and TβR-II [1]; 2.91 with TβR-I and TβR-II [3]; 1.3 in the experiment with TβR-I and TβR-II [4]. Also, the “enhancement of PAI-1 expression” value with PAI-1 expression (1 μM, 16 hr, 10 pM TGF-β1) was 3 fold. The EC50 in the experiment with PAI-1 expression (stimulated by 50 pM TGF-β1, read-out: EC50 of enhancement of PAI-1 expression) came to 0.5 µM. For the same molecule, the “increase of the total amount of TβR-II” value with TβR-I and TβR-II [2] is given as roughly 1.5 fold.
